For 14 compounds, pest or weed control results are on record in US20210403435A1, “HERBICIDAL COMPOUNDS” (SYNGENTA CROP PROTECTION AG, priority 2018, published 2021).

Like-named read-outs stand apart in the source and are kept apart here.

Holding throughout (assay): Post-emergence efficacy, glasshouse, evaluated after 13 days
What all share (type): in vivo

One test relates to Setaria faberi (SETFA). As to conditions: Setaria faberi, 312 h, read-out: Control of weed species SETFA (100=total damage to plant; 0=no damage to plant). The method, boiled down: (§1)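 Post-emergence spray on 14-day-old potted plants; glasshouse 24/16 °C, 14 h light, 65% RH, watered twice daily. Spray: IF50/acetone formulation diluted with 0.25% or 1% Empicol ESC70 + 1% ammonium sulphate. Visual damage at 13 days, 0 = none, 100 = total.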

For test [1], the system named is Ipomoea hederacea (IPOHE). As to conditions: Ipomoea hederacea, 312 h, read-out: Control of weed species IPOHE (100=total damage to plant; 0=no damage to plant). The method, boiled down: as §1
Another test has as its system Eleusine indica (ELEIN). The following applies: Eleusine indica, 312 h, read-out: Control of weed species ELEIN (100=total damage to plant; 0=no damage to plant). The method, boiled down:
as §1

Another test relates to Lolium perenne (LOLPE). As to conditions: Lolium perenne, 312 h, read-out: Control of weed species LOLPE (100=total damage to plant; 0=no damage to plant). The method, boiled down: as §1
Test [2] concerns Amaranthus palmeri (AMAPA). As to conditions: Amaranthus palmeri, 312 h, read-out: Control of weed species AMAPA (100=total damage to plant; 0=no damage to plant). The method, boiled down:
as §1

The subject of test [3] is Echinochloa crus-galli (ECHCG). The following applies: Echinochloa crus-galli, 312 h, read-out: Control of weed species ECHCG (100=total damage to plant; 0=no damage to plant). The method, boiled down: as §1
Test [4] has as its system Digitaria sanguinalis (DIGSA). As to conditions: Digitaria sanguinalis, 312 h, read-out: Control of weed species DIGSA (100=total damage to plant; 0=no damage to plant). The method, boiled down:
as §1

Test [5] deals with Chenopodium album (CHEAL). As to conditions: Chenopodium album, 312 h, read-out: Control of weed species CHEAL (100=total damage to plant; 0=no damage to plant). The method, boiled down: as §1
Test [6] has as its system Euphorbia heterophylla (EPHHL). As to conditions: Euphorbia heterophylla, 312 h, read-out: Control of weed species EPHHL (100=total damage to plant; 0=no damage to plant). The method, boiled down: as §1
Setting [7] is: post-emergence application, 500 g/Ha, evaluated after 13 days.

As for `CN(C)C(=O)c1cc[n+](CCCS(=O)(=O)O)nc1` [Compound A3], the pest or weed control at 500 g/ha with Setaria faberi (SETFA) (setting [7]) came out at 20%; in test [1] (setting [7]) it was 20%; in the test on Eleusine indica (ELEIN) (setting [7]) it was 10%; with Lolium perenne (LOLPE) (setting [7]), 10%; in test [2] (setting [7]), 90%; in test [3] (setting [7]), 20%. Moreover, the results for the pest or weed control at 500 g/ha in test [4] (setting [7]), in test [5] (setting [7]) and in test [6] (setting [7]) were 20%, 70% and 90%, respectively.

With `O=C(O)CC[n+]1ccc(C(=O)NC2(C(F)(F)F)CC2)cn1` [Compound A94], the pest or weed control at 500 g/ha came to 90% in the test with Setaria faberi (SETFA) (setting [7]); 60% in [1] (setting [7]); 100% in the test on Eleusine indica (ELEIN) (setting [7]); 80% in the test on Lolium perenne (LOLPE) (setting [7]); 100% in [2] (setting [7]); 80% in test [3] (setting [7]). The pest or weed control at 500 g/ha in [4] (setting [7]) came out at 90%; in test [5] (setting [7]), 100%; in [6] (setting [7]) it was 90%.

`CNS(=O)(=O)CCNC(=O)c1cc[n+](CCC(=O)O)nc1` [Compound A111]: the pest or weed control at 500 g/ha was 100% in the test with Setaria faberi (SETFA) (setting [7]); 40% in test [1] (setting [7]); 100% with Eleusine indica (ELEIN) (setting [7]); 70% with Lolium perenne (LOLPE) (setting [7]); 100% in test [2] (setting [7]); 90% in test [3] (setting [7]). Also, the pest or weed control at 500 g/ha was found to be 100% in test [4] (setting [7]), 90% in test [5] (setting [7]) and 90% in test [6] (setting [7]).

As to `CCCNC(=O)c1cc[n+](CCC(=O)O)nc1` [Compound A46], the pest or weed control at 500 g/ha in the test with Setaria faberi (SETFA) (setting [7]) stood at 100%; in [1] (setting [7]) it was 40%; with Eleusine indica (ELEIN) (setting [7]) it was 10%; in the test on Lolium perenne (LOLPE) (setting [7]) it was 20%; in [2] (setting [7]), 50%; in test [3] (setting [7]), 80%. Also, the pest or weed control at 500 g/ha in test [4] (setting [7]) was 90%; in test [5] (setting [7]) it was 70%; in test [6] (setting [7]) it was 100%.

For `O=C(O)CC[n+]1ccc(C(=O)NCC2CC2)cn1` [Compound A65], the pest or weed control at 500 g/ha in the test on Setaria faberi (SETFA) (setting [7]) turned out to be 100%; in [1] (setting [7]), 20%; in the test with Eleusine indica (ELEIN) (setting [7]) it was 90%; with Lolium perenne (LOLPE) (setting [7]), 50%; in [2] (setting [7]) it was 90%; in test [3] (setting [7]), 50%. Moreover, the pest or weed control at 500 g/ha in test [4] (setting [7]) is 100%; in [5] (setting [7]), 90%; in [6] (setting [7]) it was 100%.

Consider `CC(C)(CO)NC(=O)c1cc[n+](CCC(=O)O)nc1` [Compound A100], for which the pest or weed control at 500 g/ha in the test with Setaria faberi (SETFA) (setting [7]) turned out to be 90%; in [1] (setting [7]) it was 20%; in the test on Eleusine indica (ELEIN) (setting [7]) it was 40%; in the test with Lolium perenne (LOLPE) (setting [7]) it was 50%; in [2] (setting [7]), 60%; in test [3] (setting [7]), 60%. The pest or weed control at 500 g/ha in test [4] (setting [7]) worked out at 70%; in [5] (setting [7]), 20%; in test [6] (setting [7]) it was 30%.

For `O=C(O)CC[n+]1ccc(C(=O)N2CC[S+]([O-])CC2)cn1` [Compound A109], the pest or weed control at 500 g/ha worked out at 90% with Setaria faberi (SETFA) (setting [7]); 60% in test [1] (setting [7]); 90% with Eleusine indica (ELEIN) (setting [7]); 30% in the test on Lolium perenne (LOLPE) (setting [7]); 100% in test [2] (setting [7]); 70% in test [3] (setting [7]). The pest or weed control at 500 g/ha is 80% in test [4] (setting [7]), 90% in [5] (setting [7]) and 90% in test [6] (setting [7]).

For `O=C(O)CC[n+]1ccc(C(=O)NCc2ccccn2)cn1` [Compound A115], the pest or weed control at 500 g/ha was found to be 70% in the test with Setaria faberi (SETFA) (setting [7]); 20% in [1] (setting [7]); 100% in the test with Eleusine indica (ELEIN) (setting [7]); 70% in the test on Lolium perenne (LOLPE) (setting [7]); 100% in test [2] (setting [7]); 70% in [3] (setting [7]). In addition, the pest or weed control at 500 g/ha in test [4] (setting [7]), in test [5] (setting [7]) and in test [6] (setting [7]) was 70% in each case.

On to `CCNC(=O)c1cc[n+](CCP(=O)(OCC)OCC)nc1` [Compound A87], for which the pest or weed control at 500 g/ha in the test with Setaria faberi (SETFA) (post-emergence) stood at 60%; in test [1] (post-emergence), 30%; in the test with Eleusine indica (ELEIN) (post-emergence) it was 20%; in the test on Lolium perenne (LOLPE) (post-emergence), 10%; in [2] (post-emergence), 100%; in test [3] (post-emergence) it was 0%. For the same compound, the pest or weed control at 500 g/ha was 10% in [4] (post-emergence), 100% in test [5] (post-emergence) and 40% in test [6] (post-emergence).

`O=C(O)CC[n+]1ccc(C(=O)NCc2nccs2)cn1` [Compound A146]: the pest or weed control at 500 g/ha in the test on Setaria faberi (SETFA) (setting [7]) stood at 90%; in [1] (setting [7]), 20%; in the test on Eleusine indica (ELEIN) (setting [7]), 80%; in the test on Lolium perenne (LOLPE) (setting [7]), 100%; in test [2] (setting [7]), 80%; in test [3] (setting [7]), 100%. Further, the pest or weed control at 500 g/ha in [4] (setting [7]) came to 100%; in test [5] (setting [7]), 80%; in test [6] (setting [7]), 20%.

For `CC(C)CNC(=O)c1cc[n+](CCC(=O)O)nc1` [Compound A35], the pest or weed control at 500 g/ha with Setaria faberi (SETFA) (setting [7]) was 90%; in test [1] (setting [7]) it was 50%; in the test on Eleusine indica (ELEIN) (setting [7]), 100%; with Lolium perenne (LOLPE) (setting [7]) it was 70%; in test [2] (setting [7]), 100%; in test [3] (setting [7]), 60%. The pest or weed control at 500 g/ha in [4] (setting [7]) amounted to 80%; in test [5] (setting [7]) it was 90%; in test [6] (setting [7]), 100%.

As for `C#CCNC(=O)c1cc[n+](CCC(=O)O)nc1` [Compound A17], the pest or weed control at 500 g/ha in the test on Setaria faberi (SETFA) (setting [7]) is 90%; in [1] (setting [7]), 100%; in the test on Eleusine indica (ELEIN) (setting [7]) it was 100%; in the test on Lolium perenne (LOLPE) (setting [7]), 70%; in test [2] (setting [7]) it was 100%; in [3] (setting [7]) it was 90%. Further, the pest or weed control at 500 g/ha in test [4] (setting [7]) came to 100%; in test [5] (setting [7]) it was 100%; in test [6] (setting [7]), 90%.

As for `COCCNC(=O)c1cc[n+](CCCOS(=O)(=O)[O-])nc1` [Compound A138], the pest or weed control at 500 g/ha amounted to 80% in the test with Setaria faberi (SETFA) (setting [7]); 60% in test [1] (setting [7]); 60% in the test with Eleusine indica (ELEIN) (setting [7]); 60% in the test on Lolium perenne (LOLPE) (setting [7]); 30% in test [2] (setting [7]); 30% in test [3] (setting [7]). The pest or weed control at 500 g/ha was 70% in test [4] (setting [7]), 70% in test [5] (setting [7]) and 60% in test [6] (setting [7]).

`O=C(NCC1CC1)c1cc[n+](CCS(=O)(=O)[O-])nc1` [Compound A25]: the pest or weed control at 500 g/ha with Setaria faberi (SETFA) (setting [7]) was 80%; in test [1] (setting [7]) it was 60%; with Eleusine indica (ELEIN) (setting [7]) it was 90%; in the test on Lolium perenne (LOLPE) (setting [7]), 60%; in test [2] (setting [7]) it was 100%; in test [3] (setting [7]), 70%. Also, the pest or weed control at 500 g/ha in test [4] (setting [7]) was 80%; in test [5] (setting [7]) it was 90%; in test [6] (setting [7]), 80%.
